The series in a line: Accelerated storage test of beverages, BioPQQ recovery by HPLC. The format is physicochemical. The note with it: beverages stored at 60° C. (Table 5), in words. The protocol: Analysis conditions of pyrroloquinoline quinone disodium salt
HPLC Conditions: • Shimadzu LC-2010 • Column: YMC-Pack ODS-A • Detection wavelength: 259 nm • Mobile phase: 30 mM acetic acid-70 mM ammonium acetate • Column temperature: 40° C.
(Accelerated Storage Test)
The sample of Example 1 was stored under the conditions of 60° C. for 2 weeks, which are equivalent to those of room temperature for 2 years. When the stored sample was subjected to HPLC, 97% of BioPQQ was recovered.

Molecules are shown by their SMILES.

As to `OC[C@@H](O)[C@@H](O)CO` [Erythritol], the “stabilizing effect on BioPQQ” value was “high stabilizing effect”.

Values taken from US20210321645A1, “STABILIZER FOR PYRROLOQUINOLINE QUINONE, COMPOSITION COMPRISING THE SAME, AND METHOD OF STABILIZATION” (Mitsubishi Gas Chemical Company, Inc., priority 2018, published 2021).
